From patent US11524935B2, “Methods for treating attention-deficit/hyperactivity disorder” (priority 2009, dated 2022)
“Also recorded” adds a separate entry of the source. Counter-ions that a name gives are not always drawn.

What was measured:
[1] = system: Long-Evans rats; experiment: reversal of a visual discrimination (operant, Phase II reversal training); format: in vivo, rat
Protocol: Forty adult male Long-Evans rats (Charles River Laboratories, Wilmington, Mass.) approximately 250 g at the start of training were used as subjects in this study. Each shipment of rats went through five-day isolation prior to introduction to the general population. Rats were allowed a minimum of one additional week acclimation before operant training began.
Test compound was dissolved in sterile 0.9% saline at 3.0, 10.0, and 30.0 mg/mL, D-amphetamine, the reference compound, was also dissolved in 0.9% sterile saline at 1.0 mg/mL of the amphetamine salt.
After operant training began, rats were housed individually. Access to food was restricted to 12-20 grams per day to maintain animals at 85-90% free feeding body weight (relative to non-restricted rats). Rats were never deprived of water and continued gain weight while in the study.
After animals reached the training criteria on Phase I of the study, they were designated to one of the treatment groups; groups were matched for performance (days to criterion per in Phase I. The study was a mixed design (dose levels×repeated training sessions). The five dose levels were 1, 3, and 10 mg/kg test compound, 0.9 percent saline (vehicle) and 1.0 mg/kg d-amphetamine sulfate (reference compound) all delivered intraperitoneal (IP) at 1.0 mL/kg.
Animals were trained in a set of 10 operant testing chambers (Med Associates) containing two retractable response levers on the front wall. There were two stimulus lights in the chamber, one situated over each lever. The food magazine is located between the two response levers on the front wall and food delivery is signaled with a magazine light. Retrieval of the food pellet is detected by a photosensor within the food magazine. Dim illumination of the chamber is provided by a houselight over the center of the front wall.
Initially animals were shaped to press a lever for food. During this phase, both levers were extended into the chamber and the animal was rewarded with a 45 mg pellet for pressing a lever. The use of a side bias is prevented by retracting a lever once it exceeds five presses beyond the number of presses on the opposite lever. After […] consecutive days with 100 lever presses subjects were moved to Phase I of the study. In this phase, animals had to learn to press the lever beneath the illuminated signal light. On each trial, one of the signal lights (randomly chosen) was illuminated for 1.0 sec prior to presentation of the levers (30.0 sec limited hold). […] After either a correct or incorrect press, or an omission, the levers were retracted for the duration of the variable inter-trial-interval (ITT; 5 s+/−2 s). After stable responding (two consecutive days better than 80% correct) was established in this phase, animals began training in the drug administration portion of the experiment (Phase II).
In Phase II, animals were divided into five groups matched on percent accuracy and number of trials to criterion. Animals in each group were dosed with one of three doses of test compound ([…], IP), amphetamine (1.0 mg/kg, IP), or with the vehicle (saline) one hour prior to behavioral training. In Phase II the discrimination was reversed from that of Phase I such that animals were now rewarded for pressing the lever distal to the cue light. Animals were dosed daily approximately 60 min prior to training. Training continued until ad animals achieved two consecutive days above 80% correct on the new discrimination.
Data were analyzed using SPSS 12.0 for Windows (SSPS Inc., Chicago, Ill.). A mixed between groups, repeated measures ANOVA was conducted cm response accuracy data. A simple one-way ANOVA was conducted on the trials to criteria data from Phase II.

[2] = system: homozygous mutant dopamine transporter KO mice; experiment: spontaneous activity in the open field, dopamine transporter KO mice; format: in vivo, mouse
Protocol: Male and female wild-type and homozygous mutant dopamine transporter KO mice (n−10 mice/genotype/agent) were tested for spontaneous activity in the open field following a single injection of the vehicle or compound. […] All drugs, were given in a volume of 5 mL/kg. Animals were returned to the open field for an additional 90 min. Spontaneous activity was evaluated in an automated Omnitech Digiscan apparatus (Accuscan Instruments, Columbus, Ohio). Activity was summated at 5 min intervals over the 2 h period of testing. Horizontal activity or locomotion was Measured in terms of toe total distance covered in cm, vertical activity or rearing was expressed in terms of the total numbers of vertical beam breaks, and stereotypy was quantified in terms of repetitive breaks of a given beam or beams with intervals of less than 1 sec. For the analyses, 10 WT and 10 KO mice were run in each of the treatment groups with approximately equal numbers of males and females assigned to each group. Data were analyzed by the Statistical Package for Social Sciences programs (version 11.0 for Windows; SPSS Science, Chicago, Ill.). The results lot each dependent variable were analyzed by repeated analyses of variance. (RMANOVA) for within subjects effects (group differences over time) and between-subjects effects (tests of main effects and interactions). Bonferroni corrected pair-wise comparisons were used as the post-hoc tests. A p<0.05 was considered significant.

[3] = biological target: T1, human norepinephrine transporter (Homo sapiens, UniProt P23975); format: binding; settings: HEK-hNET cells
T1 construct: expressed in transfected cells; host or cells: HEK293
T1 sequence (P23975 whole entry): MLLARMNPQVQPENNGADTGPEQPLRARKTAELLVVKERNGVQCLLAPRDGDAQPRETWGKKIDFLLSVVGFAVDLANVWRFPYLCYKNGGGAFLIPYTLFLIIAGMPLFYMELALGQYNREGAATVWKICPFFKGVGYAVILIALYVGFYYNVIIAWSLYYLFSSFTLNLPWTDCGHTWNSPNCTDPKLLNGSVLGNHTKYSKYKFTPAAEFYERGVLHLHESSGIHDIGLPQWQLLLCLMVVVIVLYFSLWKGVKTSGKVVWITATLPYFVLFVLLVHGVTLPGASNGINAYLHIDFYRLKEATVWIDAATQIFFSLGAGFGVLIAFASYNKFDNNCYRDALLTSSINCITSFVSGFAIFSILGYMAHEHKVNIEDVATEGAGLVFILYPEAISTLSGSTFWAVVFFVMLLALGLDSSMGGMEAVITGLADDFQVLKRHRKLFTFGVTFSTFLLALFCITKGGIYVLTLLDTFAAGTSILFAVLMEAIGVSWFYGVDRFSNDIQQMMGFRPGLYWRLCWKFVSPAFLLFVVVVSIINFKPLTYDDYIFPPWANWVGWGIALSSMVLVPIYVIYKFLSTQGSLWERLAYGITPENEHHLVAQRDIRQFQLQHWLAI

[4] = system: extracellular monoaminergic transmitter levels; experiment: in vivo brain microdialysis in prefrontal cortical and striatal brain areas of freely-moving rats; set-up: species or system rat
Protocol: Brain dialysates were collected from male Sprague-Dawey rats, which had been chronically implanted with cortical and striatal microdialysis guide cannulae and probes. The effects of different doses of test compound (10 and 30 mg/kg, administered subcutaneously) or vehicle (saline, 0.9% NaCl) were evaluated in three 50 baseline samples and eight consecutive 50 minute post-administration samples. The levels of dopamine, norepinephrine and serotonin for the two different brain areas were analyzed using HPLC/PCD analysis to determine any effects of the compound.
In FIGS. 4 and 5, results are expressed as the average percentage change compared to the individual's average baseline value. The arrow indicates the time of administration of test compound. The average value (and corresponding S.E.M.) are shown for each 50 minute sample period of n=12 rats for each group (NB: individual data points may be based on fewer samples owing to incidental loss of dialysate samples).

[5] = biological target: T2, human dopamine transporter (Homo sapiens, UniProt Q01959); experiment: inhibition of [125I]RTI-55 binding to hDAT in HEK293 cell membranes; settings: HEK-hDAT cells
T2 construct: expressed in transfected cells; host or cells: HEK293
T2 sequence (Q01959 whole entry): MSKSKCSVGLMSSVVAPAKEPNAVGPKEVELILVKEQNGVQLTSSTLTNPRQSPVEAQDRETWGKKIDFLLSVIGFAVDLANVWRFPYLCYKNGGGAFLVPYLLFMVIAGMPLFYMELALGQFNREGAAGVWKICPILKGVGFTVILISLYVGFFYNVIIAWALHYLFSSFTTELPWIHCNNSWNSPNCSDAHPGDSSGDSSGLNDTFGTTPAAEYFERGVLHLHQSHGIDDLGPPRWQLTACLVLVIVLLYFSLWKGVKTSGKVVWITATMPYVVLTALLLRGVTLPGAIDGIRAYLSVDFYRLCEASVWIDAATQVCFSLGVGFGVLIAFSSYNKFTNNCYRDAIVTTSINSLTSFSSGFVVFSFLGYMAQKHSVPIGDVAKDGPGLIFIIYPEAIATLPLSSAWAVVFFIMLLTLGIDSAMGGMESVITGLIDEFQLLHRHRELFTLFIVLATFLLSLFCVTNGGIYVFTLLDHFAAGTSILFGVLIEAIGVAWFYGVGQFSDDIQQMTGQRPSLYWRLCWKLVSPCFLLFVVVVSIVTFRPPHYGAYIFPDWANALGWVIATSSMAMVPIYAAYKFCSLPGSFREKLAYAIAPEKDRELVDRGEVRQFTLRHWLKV

[6] = biological target: T3, human serotonin transporter (Homo sapiens, UniProt P31645); experiment: inhibition of [125I]RTI-55 binding to hSERT in HEK293 cell membranes; settings: HEK-hSERT cells
T3 construct: expressed in transfected cells; host or cells: HEK293
T3 sequence (P31645 whole entry): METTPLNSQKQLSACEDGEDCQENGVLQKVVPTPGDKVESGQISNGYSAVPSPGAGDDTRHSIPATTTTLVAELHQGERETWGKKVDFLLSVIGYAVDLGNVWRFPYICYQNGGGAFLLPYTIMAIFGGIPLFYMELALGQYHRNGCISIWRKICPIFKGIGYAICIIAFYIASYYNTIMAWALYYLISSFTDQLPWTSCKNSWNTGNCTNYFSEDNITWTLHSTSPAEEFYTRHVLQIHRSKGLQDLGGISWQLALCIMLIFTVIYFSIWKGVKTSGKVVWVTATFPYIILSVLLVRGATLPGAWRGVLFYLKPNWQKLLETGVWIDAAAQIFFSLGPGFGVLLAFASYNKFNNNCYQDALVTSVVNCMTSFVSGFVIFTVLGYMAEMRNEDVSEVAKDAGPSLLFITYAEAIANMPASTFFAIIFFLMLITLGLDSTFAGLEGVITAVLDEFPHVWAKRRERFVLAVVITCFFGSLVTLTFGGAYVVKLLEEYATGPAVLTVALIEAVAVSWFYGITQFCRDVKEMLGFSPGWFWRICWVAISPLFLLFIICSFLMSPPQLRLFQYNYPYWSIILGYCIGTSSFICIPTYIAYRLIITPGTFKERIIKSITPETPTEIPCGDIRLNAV

[7] = system: wild-type mice; experiment: spontaneous activity in the open field, wild-type mice; format: in vivo, mouse; settings: 2 mg/kg SC, relative to vehicle controls
Protocol: Male and female wild-type and homozygous mutant dopamine transporter KO mice (n−10 mice/genotype/agent) were tested for spontaneous activity in the open field following a single injection of the vehicle or compound. Mice were placed into the open field for 30 min and administered SC the vehicle (sterile water) 2 mg/kg amphetamine, or three concentrations of the test compound (10, 30, 100 mg/kg). All drugs, were given in a volume of 5 mL/kg. Animals were returned to the open field for an additional 90 min. Spontaneous activity was evaluated in an automated Omnitech Digiscan apparatus (Accuscan Instruments, Columbus, Ohio). Activity was summated at 5 min intervals over the 2 h period of testing. Horizontal activity or locomotion was Measured in terms of toe total distance covered in cm, vertical activity or rearing was expressed in terms of the total numbers of vertical beam breaks, and stereotypy was quantified in terms of repetitive breaks of a given beam or beams with intervals of less than 1 sec. For the analyses, 10 WT and 10 KO mice were run in each of the treatment groups with approximately equal numbers of males and females assigned to each group. Data were analyzed by the Statistical Package for Social Sciences programs (version 11.0 for Windows; SPSS Science, Chicago, Ill.). The results lot each dependent variable were analyzed by repeated analyses of variance. […]

[8] = 1.0 mg/kg IP daily (d-amphetamine sulfate), vs vehicle

Compound	percent accuracy during Phase II reversal training ([1]; 3.0 mg/kg IP daily, one hour prior to training, vs vehicle)	number of sessions (trials) required to reach criteria in Phase II ([1]; 3.0 mg/kg IP daily, vs vehicle)	percent accuracy during Phase II reversal training ([1]; 10.0 mg/kg IP daily, one hour prior to training)	number of sessions (trials) required to reach criteria in Phase II ([1]; 10.0 mg/kg IP daily, vs vehicle)	percent accuracy during Phase II reversal training ([1]; 30.0 mg/kg IP daily, one hour prior to training, vs vehicle)	number of sessions (trials) required to reach criteria in Phase II ([1]; 30.0 mg/kg IP daily, vs vehicle)	locomotor, rearing and stereotypical activities ([2]; 100 mg/kg SC, compared with 2 mg/kg amphetamine)	locomotor, rearing and stereotypical activities ([2]; 10, 30, 100 mg/kg SC single injection, 90 min post-injection)	Hill coefficient [3]	extracellular neurotransmitter levels (dopamine, norepinephrine, serotonin) ([4]; 10 mg/kg s.c., striatum and prefrontal cortex)	extracellular dopamine concentrations in the striatum ([4]; 30 mg/kg s.c.)	extracellular norepinephrine concentrations in the prefrontal cortex ([4]; 30 mg/kg s.c.)	other transmitters investigated (extracellular levels) ([4]; 30 mg/kg s.c.)	Hill coefficient [5]	Hill coefficient [6]	number of sessions (trials) required to reach criteria in Phase II [1, 8]	percent accuracy during Phase II reversal training [1, 8]	locomotor, rearing and stereotypical activities ([2]; 2 mg/kg SC, relative to vehicle controls)	locomotor, rearing and stereotypical activities [7]
NC(=O)OC[C@H](N)Cc1ccccc1 [Test Compound, O-carbamoyl-(D)-phenylalaninol]	better accuracy scores	needed fewer trials to reach criterion levels of performance	lower than the 3.0, and 30.0 dose of test compound	did not differ from the vehicle group	better accuracy scores	needed fewer trials to reach criterion levels of performance	suppressed activities more efficiently than amphetamine	selectively reduced activity of the KO mice in a dose-dependent manner; also recorded: reduced activities in a dose-dependent fashion	−1.45 ± 0.34	no consistent effect	increases	increases	without having any significant affect	−0.77 ± 0.12	−2.28 ± 0.05				
C[C@H](N)Cc1ccccc1 [amphetamine, d-amphetamine sulfate, reference compound]																needed fewer trials to reach criterion levels of performance	better accuracy scores	decreased them in KO animals	increased locomotor, rearing and stereotypical activities
